Source: PubChem BioAssay (NCI)
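Following 48 hours of exposure in 96-well plates, responses at five concentrations were used to interpolate endpoints linearly. GI50 = concentration required for 50% inhibition of growth. At the TGI there is no net growth.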

Key:
Test in all cases: NCI tumour cell line growth inhibition, 48 h
COLO 205 colon = tested on: COLO 205 colon
HOP-62 NSCLC = tested on: HOP-62 NSCLC
IGROV1 ovarian = tested on: IGROV1 ovarian
KM12 colon = tested on: KM12 colon
LOX IMVI melanoma = tested on: LOX IMVI melanoma
SK-MEL-5 melanoma = tested on: SK-MEL-5 melanoma
SNB-75 CNS = tested on: SNB-75 CNS
UACC-257 melanoma = tested on: UACC-257 melanoma
UACC-62 melanoma = tested on: UACC-62 melanoma
DU-145 prostate = tested on: DU-145 prostate

## CC(=O)[CH-]C(=O)c1ccccc1.CC(=O)[CH-]C(=O)c1ccccc1.CC1(C)OCC(C2OC3OC(C)(C)OC3C2[O-])O1.CC[O-].[Ti+4] (stereo unspecified)
COLO 205 colon
  GI50: 17 µM
  TGI: 32.5 µM
HOP-62 NSCLC
  GI50: 15.9 µM
  TGI: 31.1 µM
IGROV1 ovarian
  GI50: 17.9 µM
  TGI: 33.5 µM
KM12 colon
  GI50: 11.4 µM
  TGI: 26.8 µM
LOX IMVI melanoma
  GI50: 14.7 µM
  TGI: 29.8 µM
SK-MEL-5 melanoma
  GI50: 10.8 µM
  TGI: 23.9 µM
SNB-75 CNS
  GI50: 6.6 µM
UACC-257 melanoma
  GI50: 19.4 µM
  TGI: 54.8 µM
UACC-62 melanoma
  GI50: 14.2 µM
  TGI: 28.8 µM

## Cc1cccc(C)c1N1C(=O)C(=O)C(c2nc3ccccc3s2)/C(=N/NC(=O)NN)C1=O (stereo unspecified)
COLO 205 colon
  TGI: > 100 µM
HOP-62 NSCLC
  TGI: > 100 µM
IGROV1 ovarian
  TGI: > 100 µM
KM12 colon
  TGI: > 100 µM
SK-MEL-5 melanoma
  TGI: > 100 µM
SNB-75 CNS
  TGI: > 100 µM
UACC-257 melanoma
  TGI: > 100 µM
UACC-62 melanoma
  TGI: > 100 µM

## COc1ccc(C2Oc3c(c(O)cc4c3[C@H](c3ccc(O)cc3O)[C@H](O)C(c3ccc(O)c(O)c3)O4)C[C@@H]2O)cc1O (stereo partly specified)
COLO 205 colon
  TGI: > 100 µM
HOP-62 NSCLC
  TGI: > 100 µM
IGROV1 ovarian
  TGI: > 100 µM
KM12 colon
  TGI: > 100 µM
LOX IMVI melanoma
  TGI: > 100 µM
SK-MEL-5 melanoma
  TGI: > 100 µM
SNB-75 CNS
  TGI: > 100 µM
UACC-257 melanoma
  TGI: > 100 µM
UACC-62 melanoma
  TGI: > 100 µM

## Cc1c2ccncc2c(C)c2c1[nH]c1ccc(O)c(OCC(F)(F)F)c12
COLO 205 colon
  TGI: 22.3 µM
HOP-62 NSCLC
  TGI: 20.9 µM
IGROV1 ovarian
  TGI: 18.1 µM
LOX IMVI melanoma
  TGI: 3.27 µM
SK-MEL-5 melanoma
  TGI: 7.5 µM
SNB-75 CNS
  TGI: 21.1 µM
UACC-257 melanoma
  TGI: 21.4 µM
UACC-62 melanoma
  TGI: 21.6 µM

## C=C1C2Oc3ccccc3C1N(c1ccccc1)O2 (stereo unspecified)
COLO 205 colon
  TGI: > 100 µM
HOP-62 NSCLC
  TGI: > 100 µM
IGROV1 ovarian
  TGI: > 100 µM
KM12 colon
  TGI: 42.2 µM
LOX IMVI melanoma
  TGI: 36.2 µM
SNB-75 CNS
  TGI: > 100 µM
UACC-257 melanoma
  TGI: > 100 µM

## CC(C)(C)NCC(COc1ccc([N+](=O)[O-])cc1)OP(c1ccccc1)c1ccccc1 (stereo unspecified)
COLO 205 colon
  TGI: > 100 µM
HOP-62 NSCLC
  TGI: > 100 µM
IGROV1 ovarian
  TGI: > 100 µM
KM12 colon
  TGI: > 100 µM
LOX IMVI melanoma
  TGI: 26.7 µM
SK-MEL-5 melanoma
  TGI: 37.3 µM
SNB-75 CNS
  TGI: > 100 µM
UACC-257 melanoma
  TGI: > 100 µM
UACC-62 melanoma
  TGI: > 100 µM

## O=C(CC1(O)C(=O)Nc2c(Cl)ccc(Cl)c21)c1ccc(Cl)cc1Cl (stereo unspecified)
COLO 205 colon
  TGI: 31.7 µM
HOP-62 NSCLC
  TGI: 59.5 µM
IGROV1 ovarian
  TGI: 35.4 µM
KM12 colon
  TGI: 30.9 µM
LOX IMVI melanoma
  TGI: 28.3 µM
SNB-75 CNS
  TGI: 46.9 µM
UACC-257 melanoma
  TGI: 25.1 µM
UACC-62 melanoma
  TGI: 34.9 µM

## COc1ccccc1NC(=O)/C(=C/c1ccccc1)C(C)=O
HOP-62 NSCLC
  TGI: > 100 µM
IGROV1 ovarian
  TGI: > 100 µM
KM12 colon
  TGI: > 100 µM
LOX IMVI melanoma
  TGI: > 100 µM
SK-MEL-5 melanoma
  TGI: 62 µM
UACC-257 melanoma
  TGI: > 100 µM
UACC-62 melanoma
  TGI: > 100 µM

## C=CC1=C(C)C2=NC1=CC1=NC(=CC3=C(C)C4=C(O)[C@H](C(=O)OC)C(=C5NC(=C2)[C@@H](C)[C@@H]5CCC(=O)O)C4=N3)C(CC)=C1C
COLO 205 colon
  TGI: 11.8 µM
DU-145 prostate
  TGI: > 100 µM
HOP-62 NSCLC
  TGI: > 33.5 µM
IGROV1 ovarian
  TGI: > 23.8 µM
KM12 colon
  TGI: > 20.5 µM
SK-MEL-5 melanoma
  TGI: 3.75 µM
SNB-75 CNS
  TGI: 8.25 µM
UACC-257 melanoma
  TGI: 42.7 µM
UACC-62 melanoma
  TGI: 7.99 µM

## CC(C)(C)c1ccc(OC2CCO2)cc1 (stereo unspecified)
COLO 205 colon
  TGI: 70.5 µM
HOP-62 NSCLC
  TGI: > 100 µM
IGROV1 ovarian
  TGI: > 100 µM
KM12 colon
  TGI: 70.2 µM
SK-MEL-5 melanoma
  TGI: > 100 µM
SNB-75 CNS
  TGI: > 100 µM
UACC-257 melanoma
  TGI: 87.3 µM
UACC-62 melanoma
  TGI: > 100 µM

## CC(C)(C)OC(=O)NC1CCCC1=O (stereo unspecified)
HOP-62 NSCLC
  TGI: > 100 µM
KM12 colon
  TGI: > 100 µM
LOX IMVI melanoma
  TGI: > 100 µM
SK-MEL-5 melanoma
  TGI: > 100 µM
SNB-75 CNS
  TGI: > 100 µM
UACC-257 melanoma
  TGI: > 100 µM
UACC-62 melanoma
  TGI: > 100 µM

## Cc1cc(C)n(C2=NS(=O)(=O)c3ccccc3N2C)n1
COLO 205 colon
  TGI: > 100 µM
DU-145 prostate
  TGI: > 100 µM
HOP-62 NSCLC
  TGI: > 100 µM
IGROV1 ovarian
  TGI: > 100 µM
KM12 colon
  TGI: > 100 µM
LOX IMVI melanoma
  TGI: > 100 µM
SK-MEL-5 melanoma
  TGI: > 100 µM
UACC-257 melanoma
  TGI: > 100 µM
UACC-62 melanoma
  TGI: > 100 µM
